{"source": "patent US20150352108A1", "about": "“AMINO-PYRIMIDINE COMPOUNDS AS INHIBITORS OF TBK1 AND/OR IKK EPSILON” (Alzheimer's Institute of America, priority 2009, published 2015)", "key": {"IKKε": {"biological_target": "T1, IKKε (Homo sapiens, UniProt Q14164)", "T1 construct": "His-tag; made in house; host or cells: Sf9 insect cells", "T1 sequence (Q14164 1-716)": "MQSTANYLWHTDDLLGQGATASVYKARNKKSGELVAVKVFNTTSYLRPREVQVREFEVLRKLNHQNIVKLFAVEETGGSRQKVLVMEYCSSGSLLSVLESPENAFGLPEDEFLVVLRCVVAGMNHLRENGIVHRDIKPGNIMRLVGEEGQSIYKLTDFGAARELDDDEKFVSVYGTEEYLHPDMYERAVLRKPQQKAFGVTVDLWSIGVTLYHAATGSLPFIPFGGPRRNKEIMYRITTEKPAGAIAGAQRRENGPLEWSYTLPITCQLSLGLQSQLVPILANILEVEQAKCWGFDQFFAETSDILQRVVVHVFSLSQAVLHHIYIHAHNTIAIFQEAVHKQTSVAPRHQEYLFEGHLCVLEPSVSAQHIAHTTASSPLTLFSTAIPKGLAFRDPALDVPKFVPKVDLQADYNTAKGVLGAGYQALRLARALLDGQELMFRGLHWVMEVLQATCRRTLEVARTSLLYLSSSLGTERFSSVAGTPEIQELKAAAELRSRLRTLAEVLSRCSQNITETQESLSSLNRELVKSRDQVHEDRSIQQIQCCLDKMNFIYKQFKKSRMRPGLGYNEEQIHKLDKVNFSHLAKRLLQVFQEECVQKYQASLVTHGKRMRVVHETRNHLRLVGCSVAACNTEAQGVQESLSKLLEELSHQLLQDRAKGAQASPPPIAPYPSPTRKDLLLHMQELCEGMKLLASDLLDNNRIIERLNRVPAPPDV", "assay": "In-vitro IKKε kinase assay ([γ33]ATP filter-plate)", "format": "biochemical", "outline": "(§1)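 Phosphorylation of casein or myelin basic protein was counted by P-81 filter capture after 30-45 min reactions stopped with phosphoric acid, with counts normalized to DMSO after background subtraction. ATP was twice Km: 60 μM for TBK1 and 32 μM for IKKε, plus [γ33]ATP. Sf9-expressed His-tag enzymes were used at normal/sensitized levels of 0.1/0.02 μg/ml (TBK1) and 0.1/0.015 μg/ml (IKKε).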"}, "TBK1": {"biological_target": "T2, TBK1 (Homo sapiens, UniProt Q9UHD2)", "T2 construct": "His-tag; made in house; host or cells: Sf9 insect cells", "T2 sequence (Q9UHD2 1-729)": "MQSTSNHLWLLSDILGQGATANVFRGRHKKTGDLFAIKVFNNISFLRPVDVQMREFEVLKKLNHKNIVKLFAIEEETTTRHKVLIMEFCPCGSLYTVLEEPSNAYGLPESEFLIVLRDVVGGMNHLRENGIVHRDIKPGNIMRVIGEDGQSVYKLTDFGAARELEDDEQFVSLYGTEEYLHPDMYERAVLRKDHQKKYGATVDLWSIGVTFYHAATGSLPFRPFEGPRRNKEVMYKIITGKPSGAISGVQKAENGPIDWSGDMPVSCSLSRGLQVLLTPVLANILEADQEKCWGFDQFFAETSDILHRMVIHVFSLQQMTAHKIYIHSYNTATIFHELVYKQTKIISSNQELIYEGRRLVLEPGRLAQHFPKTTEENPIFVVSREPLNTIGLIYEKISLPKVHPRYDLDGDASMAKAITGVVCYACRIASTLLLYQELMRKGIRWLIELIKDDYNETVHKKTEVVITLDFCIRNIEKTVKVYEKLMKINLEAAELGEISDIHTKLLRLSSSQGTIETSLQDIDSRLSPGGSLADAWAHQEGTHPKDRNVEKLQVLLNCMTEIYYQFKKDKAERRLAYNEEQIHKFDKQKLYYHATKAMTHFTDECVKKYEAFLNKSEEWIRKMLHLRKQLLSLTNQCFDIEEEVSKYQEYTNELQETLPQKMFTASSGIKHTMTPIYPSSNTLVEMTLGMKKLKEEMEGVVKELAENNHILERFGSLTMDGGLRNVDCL", "assay": "In-vitro TBK1 kinase assay ([γ33]ATP filter-plate)", "format": "biochemical", "outline": "as §1"}, "[1]": {"conditions": "text bins, read-out: IC50 for inhibition of the kinase activity of IKKε"}, "[2]": {"conditions": "text bins, read-out: IC50 for inhibition of the kinase activity of TBK1"}}, "note": "Read-outs that look alike come from different tables or passages of the source."}
{"smiles": "N#Cc1cc(-c2ccnc(Nc3ccc(N4CCOCC4)cc3)n2)ccc1NC(=O)C1CCCCC1", "note": "[Example 54, N-[2-cyano-4-(2-{[4-(morpholin-4-yl)phenyl]amino}pyrimidin-4-yl)phenyl] cyclohexane-carboxamide]", "values": [{"measurement": "IC50", "setting": "IKKε; [1]", "value": "5 to 50", "unit": "nM"}, {"measurement": "IC50", "setting": "TBK1; [2]", "value": "10 to 100", "unit": "nM"}]}
{"smiles": "CC(C)(COc1ccc(-c2ccnc(Nc3ccc(N4CCOCC4)cc3)n2)cc1C#N)C(=O)O", "note": "[compound 460, 3-[2-cyano-4-(2-{[4-(morpholin-4-yl)phenyl]amino}pyrimidin-4-yl)phenoxy]-2,2-dimethylpropanoic acid]", "values": [{"measurement": "IC50", "setting": "IKKε; [1]", "value": "5 to 50", "unit": "nM"}, {"measurement": "IC50", "setting": "TBK1; [2]", "value": "10 to 100", "unit": "nM"}]}
{"smiles": "CC(C)CC(=O)Nc1ccc(-c2ccnc(Nc3ccc(N4CCOCC4)cc3)n2)cc1C#N", "note": "[Example 1, N-[2-cyano-4-(2-{[4-(morpholin-4-yl)phenyl]amino}pyrimidin-4-yl)phenyl]-3-methylbutanamide]", "values": [{"measurement": "IC50", "setting": "IKKε; [1]", "value": "5 to 50", "unit": "nM"}, {"measurement": "IC50", "setting": "TBK1; [2]", "value": "< 10", "unit": "nM"}]}
{"smiles": "CC(=O)Nc1ccc(-c2ccnc(Nc3ccc(N4CCOCC4)cc3)n2)cc1C#N", "note": "[Example 117, N-[2-Cyano-4-(2-{[4-(morpholin-4-yl)phenyl]amino}pyrimidin-4-yl)phenyl]acetamide]", "values": [{"measurement": "IC50", "setting": "IKKε; [1]", "value": "5 to 50", "unit": "nM"}, {"measurement": "IC50", "setting": "TBK1; [2]", "value": "10 to 100", "unit": "nM"}]}
{"smiles": "N#Cc1cc(-c2ccnc(Nc3ccc(N4CCOCC4)cc3)n2)ccc1NC(=O)C1CCC1", "note": "[compound 416, N-[2-cyano-4-(2-{[4-(morpholin-4-yl)phenyl]amino}pyrimidin-4-yl)phenyl] cyclobutane-carboxamide]", "values": [{"measurement": "IC50", "setting": "IKKε; [1]", "value": "5 to 50", "unit": "nM"}, {"measurement": "IC50", "setting": "TBK1; [2]", "value": "10 to 100", "unit": "nM"}]}
{"smiles": "COCCNC(=O)c1ccc(Nc2nccc(-c3ccc(OCC(C)C)c(C#N)c3)n2)cc1", "note": "[compound 565, 4-({4-[3-Cyano-4-(2-methylpropoxy)phenyl]pyrimidin-2-yl}amino)-N-(2-methoxyethyl) benzamide]", "values": [{"measurement": "IC50", "setting": "IKKε; Table 3, read-out: IKKε IC50", "value": 0.6, "unit": "nM"}, {"measurement": "IC50", "setting": "IKKε; [1]", "value": "< 5", "unit": "nM"}, {"measurement": "IC50", "setting": "TBK1; Table 3, read-out: TBK1 IC50", "value": 2.1, "unit": "nM"}, {"measurement": "IC50", "setting": "TBK1; [2]", "value": "< 10", "unit": "nM"}]}
{"smiles": "N#Cc1cc(-c2ccnc(Nc3ccc4c(c3)OCO4)n2)ccc1OC1CCOCC1", "note": "[Example 23, 5-[2-(1,3-benzodioxol-5-ylamino)pyrimidin-4-yl]-2-(tetrahydro-2H-pyran-4-yloxy)benzonitrile]", "values": [{"measurement": "IC50", "setting": "IKKε; [1]", "value": "5 to 50", "unit": "nM"}, {"measurement": "IC50", "setting": "TBK1; [2]", "value": "< 10", "unit": "nM"}]}
{"smiles": "N#Cc1cccc(-c2ccnc(Nc3ccc4[nH]ncc4c3)n2)c1", "note": "[compound 387, 3-[2-(1H-Indazol-5-ylamino)pyrimidin-4-yl]benzonitrile]", "values": [{"measurement": "IC50", "setting": "IKKε; [1]", "value": "5 to 50", "unit": "nM"}, {"measurement": "IC50", "setting": "TBK1; [2]", "value": "100 to 500", "unit": "nM"}]}
{"smiles": "COc1ccc(-c2ccnc(Nc3ccc(CN4CCN(C)CC4)cc3)n2)cc1C#N", "note": "[compound 337, 2-Methoxy-5-[2-({4-[(4-methylpiperazin-1-yl)methyl]phenyl}amino)pyrimidin-4-yl]benzonitrile]", "values": [{"measurement": "IC50", "setting": "IKKε; [1]", "value": "5 to 50", "unit": "nM"}, {"measurement": "IC50", "setting": "TBK1; [2]", "value": "10 to 100", "unit": "nM"}]}
{"smiles": "COc1cc(NC(=O)N[C@H]2CC[C@H](O)CC2)cc(Nc2nccc(-c3ccc(OC)c(C#N)c3)n2)c1", "note": "[Example 280, 1-(3-{[4-(3-Cyano-4-methoxyphenyl)pyrimidin-2-yl]amino}-5-methoxyphenyl)-3-(trans-4-hydroxycyclohexyl) urea]", "values": [{"measurement": "IC50", "setting": "IKKε; [1]", "value": "5 to 50", "unit": "nM"}, {"measurement": "IC50", "setting": "TBK1; [2]", "value": "10 to 100", "unit": "nM"}]}
{"smiles": "N#Cc1cc(-c2ccnc(Nc3ccc(N4CCOCC4)c(Cl)c3)n2)ccc1OC1CCOCC1", "note": "[compound 374, 5-(2-{[3-chloro-4-(morpholin-4-yl)phenyl]amino}pyrimidin-4-yl)-2-(tetrahydro-2H-pyran-4-yloxy)benzonitrile]", "values": [{"measurement": "IC50", "setting": "IKKε; [1]", "value": "< 5", "unit": "nM"}, {"measurement": "IC50", "setting": "TBK1; [2]", "value": "< 10", "unit": "nM"}]}
{"smiles": "COc1cc(Nc2nccc(-c3ccc(OC4CCN(C(=O)[C@H](C)O)CC4)c(C#N)c3)n2)ccc1C(=O)NCCCN(C)C", "note": "[compound 376, 4-({4-[3-cyano-4-({1-[(2S)-2-hydroxypropanoyl]piperidin-4-yl}oxy)phenyl]pyrimidin-2-yl}amino)-N-[3-(dimethylamino)propyl]-2-methoxybenzamide]", "values": [{"measurement": "IC50", "setting": "IKKε; [1]", "value": "< 5", "unit": "nM"}, {"measurement": "IC50", "setting": "TBK1; [2]", "value": "< 10", "unit": "nM"}]}
{"smiles": "CCOc1cccc(Nc2nccc(-c3cccc(C#N)c3)n2)c1", "note": "[Example 276, 3-{2-[(3-Ethoxyphenyl)amino]pyrimidin-4-yl}benzonitrile]", "values": [{"measurement": "IC50", "setting": "IKKε; [1]", "value": "50 to 500", "unit": "nM"}, {"measurement": "IC50", "setting": "TBK1; [2]", "value": "100 to 500", "unit": "nM"}]}
